This is an account of results in US10869483B2, “Coniothyrium minitans for use against moss growth” (Bayer CropScience Aktiengesellschaft, priority 2015, dated 2020).

Molecules are shown by their SMILES.

This assay deals with haircup moss growth. The assay can be described thus: Drench test (greenhouse, moss growth on soil surface). In kind it is in vivo. Conditions: 6.25 kg/ha = 20 μL/mL, 20 mL drench onto soil, 19 weeks, 15° C., 0% = untreated control, 100% = no moss growth. As for the experimental part:
The test was carried out under greenhouse conditions.
120 mL of a mixture of steamed field soil and sand (1:1) was filled into transparent cylindrical vessels 5.5 cm in size.
The test formulation, the product CONTANS®, comprising 1×10^9 spores of the strain Coniothyrium minitans CON/M/91-08, was dissolved in water and diluted with water to the desired concentrations. 20 mL of the made-up solutions were pipetted onto the soil in the vessels.
The vessels were covered with a transparent lid.
The vessels remained in the greenhouse for the next 19 weeks, at 15° C. and at natural light conditions. The lids were opened slightly after approximately 2 weeks, and the soil was watered every 3 weeks and kept moist.
The evaluation was effected by estimating, per vessel, the soil surface area which had in the meantime been covered by growth, predominantly haircup moss growth. 0% means an efficacy which corresponds to that of the untreated control, while an efficacy of 100% means that no moss growth was discernible.

In turn, `CCCCCCCCCC[N+](C)(C)CCCCCCCCCC.[Cl-]` [DDAC-C10, Didecyldimethylammonium chloride with alkyl chain length C10] registered an Efficacy % of 100%.
